Here are results for one molecule from patent publication US20220003751A1, “METHOD FOR […] OF COLCHICINE-I[…]” (ASSISTANCE PUBLIQUE - HÔPITAUX DE PARIS, priority 2019, published 2022).

Data set [1] is described as follows: mortality rate by supposed ingested dose in colchicine overdose. It counts as in vivo, human. The protocol: Although the dose ingested has an influence on the clinical picture, it is not, by itself, enough to allow prediction of the death of the patient. Indeed, the mortality rate in the three groups of supposed ingested dose equal to or less than 0.35 mg/kg, >0.35—equal or less than 0.7, and >0.7 were 0 (0%), 6/33 (18%), and 12/36 (33%) (Fisher's exact test: p<0.0001). The relation of mortality rate to the dose is statistically highly significant albeit being weak. Therefore, from a clinical viewpoint, other parameters reflecting the effects of the dose should be considered to define the likelihood of death in colchicine overdose.

For data set [2] the following is noted: cited from earlier work.

On to `COc1cc2c(c(OC)c1OC)-c1ccc(OC)c(=O)cc1[C@@H](NC(C)=O)CC2` [colchicine, Colchicine], for which the mortality rate came out at 33% in data set [1] (supposed ingested dose >0.7 mg/kg, 12/36); 18% in data set [1] (supposed ingested dose >0.35 to equal or less than 0.7 mg/kg, 6/33); 0% in data set [1] (supposed ingested dose equal to or less than 0.35 mg/kg). Further, the “acute dose presumed to be fatal” value in data set [2] is “about 0.8 mg/kg”.
